Reference: patent US8772237B2, “Compositions and methods for counteracting effects of reactive oxygen species and free radicals” (Ischemix, Inc., priority 1999, dated 2014)
Ends that are not written are not given here.

Tests used:
Format in all cases: cell-based
catalase (CAT) mRNA = assay: RT-PCR upregulation of catalase (CAT) mRNA in primary rat cortical cultures; details: 100 ng/ml
Description: Peptide compounds of the invention may also upregulate mRNA for catalase (CAT). Experiments using the RT-PCR methods to detect upregulation of CAT mRNA in primary rat cortical brain cultures treated with various representative peptide compounds, i.e., CMX-9236, CMX-9963, and CMX-9967. The catalase probe duplex consisted of a sense primer having the sequence […] (SEQ ID NO:31) and antisense primer having the sequence […] (SEQ ID NO:32) flanking a 95 bp region of the CAT DNA.
Primary rat brain cortical cell cultures were incubated with 100 ng/ml of the peptide compound CMX-9236 for 0, 0.5, 1, 2, 3, 6, 12, 24, and 48 hours. […] The upregulation of CAT mRNA was maximal at 3 hours after the addition of the peptide compound, and it decreased back to control levels at 48 hours. GAPDH was the internal standard in these experiments. […] A 13-fold increase in CAT mRNA levels was observed (over control) of CAT mRNA occurred when primary rat brain cortical cultures were incubated with 100 ng/ml of CMX-9236 for 3 hours.

SOD-1 mRNA = assay: RT-PCR upregulation of SOD-1 mRNA in rat primary myocyte cultures; details: rat primary myocytes, 3-hour incubation
Description: Primary cultures of rat brain cortical cells were incubated with 100 ng/ml of peptide compound CMX-9236 for durations of 0 to 48 hours. mRNA was isolated from the cytoplasmic fraction of lysed cells according to standard methods (Angel et al., Cell 49:729-739, 1987). The RNA was incubated according to the RT-PCR protocol with two strands, 20 nucleotides long, one for the sense and one from the antisense strand. The sequences were selected to be unique for superoxide dismutase-1 (SOD-1), and to span one intron segment. […] The sequence of the two probe segments of the oligo dT segments for SOD are as follows: anti-sense strand, […] (SEQ ID NO:29), and sense strand, […] (SEQ ID NO:30). These span a sequence of 208 base pairs (bp) on the primary SOD sequence. The mixture was then treated with reverse transcriptase to obtain the cDNA according to standard PCR methods. The cDNA was then analyzed by electrophoresis and separated according to sequence lengths on a non-denaturing 5% polyacrylamide gel. The electrophoretically separated molecules were treated with ethidium bromide to stain double-stranded DNA fragments. […] The gels were then analyzed by a laser scanning fluorescence detector to quantitate the amount of messenger RNA for the extent of upregulation of SOD message and its time course of synthesis as a function of stimulation by CMX-9236. […]

[1] = tested on: transcription factor AP-1; assay: Electrophoretic mobility shift assay (EMSA) for AP-1 activation in primary rat neurons / cortical cultures
Description: Nuclear extracts for electrophoretic mobility shift assays (EMSAs) were prepared as described previously (Adams et al., J. Leukocyte Biol., 62: 865-873 (1997)) using 1.0-2.0×10^7 cells per sample. All buffers were freshly supplemented with dithiothreitol (DTT, 0.5 mM), protease inhibitors: PMSF (0.5 mM), chymostatin, peptstatin-A, aprotinin, antipain, leupeptin (each at 1 μg/ml), and phosphatase inhibitors: NaF (10 mM), ZnCl2 (1 mM), sodium orthovanadate (1 mM), and sodium pyrophosphate (5 mM). Aliquots of the final dialyzates were stored at −80° C. and discarded after use.
AP-1 transcription factor activation was assayed using an electrophoretic mobility shift assay (EMSA), as described by Adams et al., J. Leukoc. Biol., 62:865-873 (1997)). Cultures of primary rat neurons (Cornell-Bell et al., Cell Calcium, 12: 185-204 (1991)) were stimulated for 3 hours with various concentrations (0, 1, 10, 100 ng/ml) of peptide CMX-9236. Nuclear extracts prepared as described above were separated by gel electophoresis on non-denaturing gels and subjected to the EMSA procedure. This EMSA used an AP-1 synthetic duplex probe (Angel, P., 1987, Cell 49:729-739) having the sequence 5′-[…] (SEQ ID NO:33) and its antisense copy (complement strand), which were end-labeled with P^32 using polynucleotide kinase and (γ-P^32)-ATP. For the EMSA reaction, the labeled probe (0.5 pmol) was mixed with 3 μg of nuclear extract protein in a solution containing 10 mM Tris-HCl, pH 7.5, 50 mM NaCl, 1 mM EDTA, 1 mM dithiothreitol, 5% glycerol, 0.02% β-mercaptoethanol, and 1 μg of poly-dI/dC (Pharmacia). Reaction mixtures were incubated at 25° C. for 20 minutes to allow complete complex formation by the duplex with its appropriate AP-1 protein. The mixture was then electrophoresed under non-denaturing conditions through 4% polyacrylamide gels in 0.5×TBE buffer (45 mM Trisma base, 45 mM boric acid, 1 mM EDTA). The gels were dried on 3 mm paper. Bands were visualized by autoradiography at −80° C. with one intensifying screen and quantified by laser densitometry. The upregulation of AP-1 and the activation and upregulation process of AP-1 was compared to control cultures.
Primary cortical cell cultures were grown to confluence and used in in vitro cultures for determining the effects of various representative peptide compounds on upregulation of AP-1. […] Extracts were prepared from the nuclei isolated from the primary culture homogenates, purified, and analyzed for the presence of specific transcription factors using the electrophoretic mobility shift assay (EMSA) method. The binding of ^32P-labeled duplex DNA probes specific for activator protein-1 (AP-1) or nuclear factor κB (NF-κB) was analyzed and quantified by autoradiography. After a 3-hour incubation of the cultures with 1 ng/ml of the peptide CMX-9236 there was a 15-fold increase of AP-1 relative to […] control cultures. […] Thus, a small peptide compound that is less than 20 amino acids long can simulate the properties of large growth factors such as NGF and BDNF, which exist as dimers of protein chains with molecular weights of 13,259 and 13,500, respectively.

Sequence: KKDGDGDFAIDAPE [CMX-9236, uncapped peptide]
- time at which CAT mRNA decreased back to control levels (catalase (CAT) mRNA): 48 h
- time of maximal upregulation of CAT mRNA after addition (catalase (CAT) mRNA): 3 h
- increase in CAT mRNA levels over control (catalase (CAT) mRNA; 3 hours): 13 fold
- upregulation of SOD mRNA (SOD-1 mRNA; 1 ng/ml): 3 fold
- upregulation of SOD-1 mRNA transcripts (SOD-1 mRNA; 10-100 ng/ml): about 6 fold
- fold-increase of AP-1 ([1]; 1 ng/ml, 3-hour incubation): 15 fold
- fold-increase of AP-1 (binding of DNA duplex probe) ([1]; 100 ng/ml, 3 hours): 60 fold
